Experimental findings from paper PMC9502897, “Design, Synthesis and Structure—Activity Relationships of Phenylalanine-Containing Peptidomimetics as Novel HIV-1 Capsid Binders Based on Ugi Four-Component Reaction” (Molecules, 2022) are described below.

The term EC50 denotes the concentration that produces a half-maximal response. A word on the CC50: it is the concentration at which the toxic effect on the cells reaches its halfway point. A high value points to better tolerance by the cells.

Series [1] concerns HIV-2. Briefly: Anti-HIV-2 activity in MT-4 cells (MTT method). The format is cell-based. The method, then: (§1) The evaluation of the antiviral activity of the compounds against HIV in MT-4 cells was performed using the MTT assay as described below. Stock solutions (10 × final concentration) of test compounds were added in 25 μL volumes to two series of triplicate wells to allow simultaneous evaluation of their effects on mock- and HIV-infected cells at the beginning of each experiment. Serial 5-fold dilutions of test compounds were made directly in flat-bottomed 96-well microtiter trays using a Biomek 3000 robot (Beckman Instruments, Fullerton, CA). Untreated HIV- and mock-infected cell samples were included as controls. HIV stock ([…]) at 100–300 CCID50 (50% cell culture infectious doses) or culture medium was added to either the infected or mock-infected wells of the microtiter tray. Mock-infected cells were used to evaluate the effects of the test compound on uninfected cells to assess the test compounds’ cytotoxicity. Exponentially growing MT-4 cells were centrifuged for 5 min at 220 g, and the supernatant was discarded. The MT-4 cells were resuspended at 6 × 10^5 cells/mL, and 50 μL volumes were transferred to the microtiter tray wells. Five days after infection, the viability of mock- and HIV-infected cells was examined spectrophotometrically using the MTT assay. The MTT assay is based on the reduction of yellow-colored 3-(4,5-dimethylthiazol-2-yl)-2,5-diphenyltetrazolium bromide (MTT) (Acros Organics) by mitochondrial dehydrogenase activity in metabolically active cells to a blue-purple formazan that can be measured spectrophotometrically. The absorbances were read in an eight-channel computer-controlled photometer (Infinite M1000, Tecan) at two wavelengths (540 and 690 nm). All data were calculated using the median absorbance value of three wells.
A general note: Tetrazolium dyes change colour on reduction, which living cells bring about.

In series [2] the test system is MT-4 cells. Briefly: in vitro. The method, then:
as §1

Series [3] relates to HIV-1. Briefly: Anti-HIV-1 activity in MT-4 cells (MTT method). It is filed as cell-based. The following applies: for EC50: MT-4 cells, 50% protection against HIV-induced cytopathicity, MTT method; for anti-HIV activity: R2 1-methylnaphthalene replaced by 2-methylnaphthalene, HIV-1/HIV-2, MT-4 cells. As to the method:
as §1

Series [4] can be described thus: Cytotoxicity in mock-infected MT-4 cells (MTT method). The following applies: human, mock-infected (uninfected) MT-4 cells, CC50, uninfected MT-4 cells, viability reduced by 50%, MTT method. As to the method: as §1
Setting [5] is: Human immunodeficiency virus 2, MT4, 50% protection against HIV-induced cytopathicity.
The mark [6] stands for this setting: Human immunodeficiency virus 1, MT4.
[7] abbreviates: 50% protection against HIV-induced cytopathicity.

Bounds are passed on as bounds.

Regarding `COc1ccc(N(C)C(=O)[C@H](Cc2cc(F)cc(F)c2)NC(=O)CN(Cc2ccc(F)cc2)C(=O)Cc2ccc(B(O)O)cc2)cc1` [I-23, (S)-(4-(2-((2-((3-(3,5-difluorophenyl)-1-((4-methoxyphenyl)(methyl)amino)-1-oxopropan-2-yl)amino)-2-oxoethyl)(4-fluorobenzyl)amino)-2-oxoethyl)phenyl) boronic acid], the figures for the EC50 in series [1] (setting [5]) and in series [3] (setting [6]) were 6.8 ± 0.36 µM and 4.33 ± 1.32 µM, respectively. The same compound had a CC50 in series [2] (human, 5 days) of 18.9 ± 3.59 µM.
As to `COc1ccc(N(C)C(=O)[C@H](Cc2cc(F)cc(F)c2)NC(=O)CN(Cc2ccc(C#N)cc2)C(=O)Cc2ccc(B3OC(C)(C)C(C)(C)O3)cc2)cc1` [I-17, (S)-2-(2-(N-(4-cyanobenzyl)-2-(4-(4,4,5,5-tetramethyl-1,3,2-dioxaborolan-2-yl)phenyl)acetamido)acetamido)-3-(3,5-difluorophenyl)-N-(4-methoxyphenyl)-N-methylpropanamide], the EC50 came to 16.2 ± 4.59 µM in series [1] (setting [5]) and 17.7 ± 4.6 µM in series [3] (setting [6]). Further, the 50% cytotoxic concentration (CC50) in series [2] (human, 5 days) turned out to be 52.4 ± 14.2 µM.
On to `COc1ccc(N(C)C(=O)[C@H](Cc2cc(F)cc(F)c2)NC(=O)CN(Cc2ccc(F)cc2)C(=O)Cc2c(C)[nH]c3ccccc23)cc1` [I-7, (S)-3-(3,5-difluorophenyl)-2-(2-(N-(4-fluorobenzyl)-2-(2-methyl-1H-indol-3-yl)acetamido)acetamido)-N-(4-methoxyphenyl)-N-methylpropanamide], for which the EC50 is more than 22.6 µM in series [1] (setting [5]) and 2.79 ± 0.19 µM in series [3] (setting [6]). The CC50 in series [2] (human, 5 days) was 22.6 ± 0.96 µM.
Regarding “(S)-2-(2-(2-(5-bromo-2-methyl-1H-indol-3-yl)-N-(4-cyanobenzyl)acetamido)acetamido)-3-(3,5-difluorophenyl)-N-(4-methoxyphenyl)-N-methylpropanamide [I-16]”, the half-maximal effective concentration (EC50) is 15.7 ± 13.3 µM in series [1] (setting [7]) and 5.61 ± 1.18 µM in series [3]. This compound also returned a CC50 in series [2] of 87.6 ± 62.2 µM.
Take `COc1ccc(N(C)C(=O)[C@H](Cc2cc(F)cc(F)c2)NC(=O)CN(Cc2ccc(C#N)cc2)C(=O)Cc2cccc3ccccc23)cc1` [I-14, (S)-2-(2-(N-(4-cyanobenzyl)-2-(naphthalen-1-yl)acetamido)acetamido)-3-(3,5-difluorophenyl)-N-(4-methoxyphenyl)-N-methylpropanamide]: the EC50 in series [1] (setting [5]) was 2.3 ± 0.11 µM; in series [3] (setting [6]) it was more than 189 µM. The compound also registered a CC50 in series [2] (human, 5 days) of more than 189 µM.
For `COc1ccc(N(C)C(=O)[C@H](Cc2cc(F)cc(F)c2)NC(=O)CN(Cc2ccc(C#N)cc2)C(=O)Cc2ccc3ccccc3c2)cc1` [I-13, (S)-2-(2-(N-(4-cyanobenzyl)-2-(naphthalen-2-yl)acetamido)acetamido)-3-(3,5-difluorophenyl)-N-(4-methoxyphenyl)-N-methylpropanamide], the 50% effective concentration (EC50) in series [1] (setting [5]) was 161 ± 26 µM; in series [3] (setting [6]), more than 189 µM. The CC50 in series [2] (human, 5 days) was more than 189 µM. The anti-HIV activity entry in series [3] was “lost”.
Regarding `COc1ccc(N(C)C(=O)[C@H](Cc2cc(F)cc(F)c2)NC(=O)CN(Cc2ccccc2)C(=O)Cc2ccc3ccccc3c2)cc1` [I-22, (S)-2-(2-(N-benzyl-2-(naphthalen-2-yl)acetamido)acetamido)-3-(3,5-difluorophenyl)-N-(4-methoxyphenyl)-N-methylpropanamide], the figures for the EC50 in series [1] (setting [5]) and in series [3] (setting [6]) were more than 18.9 µM and more than 176 µM, respectively. This compound also registered a CC50 in series [2] (human, 5 days) of 176 ± 7.35 µM.
As to “(S)-2-(2-(N-(4-cyanobenzyl)-2-(5-fluoro-2-methyl-1H-indol-3-yl)acetamido)acetamido)-3-(3,5-difluorophenyl)-N-(4-methoxyphenyl)-N-methylpropanamide [I-15]”, the results for the EC50 in series [1] (setting [7]) and in series [3] were 5.81 ± 1.11 µM and 17.2 ± 9.98 µM, respectively. This compound gave a cytotoxic concentration (CC50) in series [2] of 148 ± 16.6 µM.
In the case of `COc1ccc(N(C)C(=O)[C@H](Cc2cc(F)cc(F)c2)NC(=O)CN(CC2CCCCC2)C(=O)Cc2c[nH]c3ccc(Br)cc23)cc1` [I-10, (S)-2-(2-(2-(5-bromo-1H-indol-3-yl)-N-(cyclohexylmethyl)acetamido)acetamido)-3-(3,5-difluorophenyl)-N-(4-methoxyphenyl)-N-methylpropanamide], the EC50 in series [1] (setting [5]) and in series [3] (setting [6]) was more than 17.6 µM in each case. This compound had a CC50 in series [2] (human, 5 days) of 17.6 ± 2.41 µM.
As to `COc1ccc(N(C)C(=O)[C@H](Cc2cc(F)cc(F)c2)NC(=O)CN(Cc2ccc(F)cc2)C(=O)Cc2c[nH]c3ccc(Br)cc23)cc1` [I-9, (S)-2-(2-(2-(5-bromo-1H-indol-3-yl)-N-(4-fluorobenzyl)acetamido)acetamido)-3-(3,5-difluorophenyl)-N-(4-methoxyphenyl)-N-methylpropanamide], the values for the half-maximal effective concentration (EC50) in series [1] (setting [5]) and in series [3] (setting [6]) were more than 17.8 µM and 2.93 ± 0.32 µM, respectively. In series [2] (human, 5 days), this compound yielded a CC50 of 17.8 ± 1.04 µM.
The matching figures for `COc1ccc(N(C)C(=O)[C@H](Cc2cc(F)cc(F)c2)NC(=O)CN(Cc2ccc(F)cc2)C(=O)Cc2ccc(B3OC(C)(C)C(C)(C)O3)cc2)cc1` [I-12, (S)-3-(3,5-difluorophenyl)-2-(2-(N-(4-fluorobenzyl)-2-(4-(4,4,5,5-tetramethyl-1,3,2-dioxaborolan-2-yl)phenyl)acetamido)acetamido)-N-(4-methoxyphenyl)-N-methylpropanamide]: 13.2 ± 2.6 µM, 11.7 ± 2.07 µM and 65.4 ± 16.8 µM.
For `COc1ccc(N(C)C(=O)[C@H](Cc2cc(F)cc(F)c2)NC(=O)CN(Cc2ccccc2)C(=O)Cc2c(C)[nH]c3ccccc23)cc1` [I-21, (S)-2-(2-(N-benzyl-2-(2-methyl-1H-indol-3-yl)acetamido)acetamido)-3-(3,5-difluorophenyl)-N-(4-methoxyphenyl)-N-methylpropanamide], the EC50 was determined as 6.52 ± 0.6 µM in series [1] (setting [5]) and 2.77 ± 0.77 µM in series [3] (setting [6]). This compound also had a CC50 in series [2] (human, 5 days) of 28.6 ± 0.86 µM.
Regarding `COc1ccc(N(C)C(=O)[C@H](Cc2cc(F)cc(F)c2)NC(=O)CN(C(=O)Cc2ccc(B3OC(C)(C)C(C)(C)O3)cc2)C2CC2)cc1` [I-18, (S)-2-(2-(N-cyclopropyl-2-(4-(4,4,5,5-tetramethyl-1,3,2-dioxaborolan-2-yl)phenyl)acetamido)acetamido)-3-(3,5-difluorophenyl)-N-(4-methoxyphenyl)-N-methylpropanamide], the EC50 in series [1] (setting [5]) amounted to 9.71 ± 0.8 µM; in series [3] (setting [6]), 5.18 ± 1.11 µM. Half-maximal cytotoxicity in series [2] (human, 5 days) (CC50) was put at 89 ± 17.1 µM.
Regarding `COc1ccc(N(C)C(=O)[C@H](Cc2cc(F)cc(F)c2)NC(=O)CN(CC2CCCCC2)C(=O)Cn2nc(C(F)(F)F)cc2C)cc1` [I-20, (S)-2-(2-(N-(cyclohexylmethyl)-2-(5-methyl-3-(trifluoromethyl)-1H-pyrazol-1-yl)acetamido)acetamido)-3-(3,5-difluorophenyl)-N-(4-methoxyphenyl)-N-methylpropanamide], the values for the EC50 in series [1] (setting [5]) and in series [3] (setting [6]) were 24.9 ± 12 µM and 30.3 ± 3.24 µM, respectively. The CC50 in series [2] (human, 5 days) was 45.7 ± 5.36 µM.
As for `COc1ccc(N(C)C(=O)[C@H](Cc2cc(F)cc(F)c2)NC(=O)CN(Cc2ccc(F)cc2)C(=O)Cc2cccc3ccccc23)cc1` [I-8, (S)-3-(3,5-difluorophenyl)-2-(2-(N-(4-fluorobenzyl)-2-(naphthalen-1-yl)acetamido)acetamido)-N-(4-methoxyphenyl)-N-methylpropanamide], the concentration for a half-maximal effect (EC50) in series [1] (setting [5]) is 5.87 ± 1.79 µM; in series [3] (setting [6]), more than 191 µM. The same compound gave a CC50 in series [2] (human, 5 days) of more than 191 µM.
On to `COc1ccc(N(C)C(=O)[C@H](Cc2cc(F)cc(F)c2)NC(=O)CN(Cc2ccc(F)cc2)C(=O)Cc2ccc3ccccc3c2)cc1` [I-6, (S)-3-(3,5-difluorophenyl)-2-(2-(N-(4-fluorobenzyl)-2-(naphthalen-2-yl)acetamido)acetamido)-N-(4-methoxyphenyl)-N-methylpropanamide], for which the EC50 in series [1] (setting [5]) and in series [3] (setting [6]) was more than 160 µM each time. This compound also showed a 50% cytotoxic concentration (CC50) in series [2] (human, 5 days) of more than 160 µM. Also, the anti-HIV activity entry in series [3] is given as “lost”.
`Cc1ccnc2c1NC(=O)c1cccnc1N2C1CC1` [NVP, nevirapine, reference compound] registered an EC50 in series [1] (setting [5]) of more than 15 µM. For the same compound, the CC50 at 5 days in series [4] is more than 15.2 µM. Also, in series [2] (uninfected MT-4 cells, viability reduced by 50%, MTT method), the CC50 is more than 15 µM.
